Data from PubChem BioAssay (NCI).
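Values below derive from 48-hour exposures of cells grown in 96-well plates, with endpoints linearly interpolated between the two concentrations bracketing the appropriate inhibition level. TGI: concentration producing complete growth inhibition.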

How the values were obtained:
Assay in all cases: NCI tumour cell line growth inhibition, 48 h
[1] = system: RPMI-8226 leukemia
[2] = system: IGROV1 ovarian
[3] = system: EKVX NSCLC
[4] = system: T-47D breast
[5] = system: SNB-19 CNS
[6] = system: LOX IMVI melanoma
[7] = system: NCI-H23 lung
[8] = system: A498 renal
[9] = system: HCT-15 colon
[10] = system: UACC-62 melanoma
[11] = system: SF-295 CNS
[12] = system: NCI/ADR-RES ovarian
[13] = system: NCI-H460 lung
[14] = system: OVCAR-5 ovarian
[15] = system: HOP-92 NSCLC
[16] = system: HS 578T breast
[17] = system: NCI-H226 lung
[18] = system: SR leukemia
[19] = system: KM12 colon
[20] = system: HL-60(TB) leukemia
[21] = system: OVCAR-3 ovarian
[22] = system: SN12C renal
[23] = system: CAKI-1 renal
[24] = system: SF-539 CNS
[25] = system: M14 melanoma
[26] = system: SW-620 colon
[27] = system: SK-MEL-28 melanoma
[28] = system: COLO 205 colon
[29] = system: UACC-257 melanoma
[30] = system: HOP-62 NSCLC
[31] = system: 786-0 renal
[32] = system: MCF7 breast
[33] = system: HCT-116 colon
[34] = system: SK-OV-3 ovarian
[35] = system: MALME-3M melanoma
[36] = system: SK-MEL-5 melanoma
[37] = system: NCI-H522 lung
[38] = system: DU-145 prostate
[39] = system: HCC-2998 colon
[40] = system: OVCAR-8 ovarian
[41] = system: SNB-75 CNS
[42] = system: SF-268 CNS
[43] = system: TK-10 renal
[44] = system: ACHN renal
[45] = system: HT29 colon
[46] = system: MOLT-4 leukemia
[47] = system: BT-549 breast
[48] = system: CCRF-CEM leukemia
[49] = system: MDA-MB-231 breast
[50] = system: OVCAR-4 ovarian
[51] = system: UO-31 renal
[52] = system: U251 CNS
[53] = system: MDA-MB-435
[54] = system: MDA-N
[55] = system: A549 NSCLC
[56] = system: K-562 leukemia
[57] = system: RXF 393 renal
[58] = system: SK-MEL-2 melanoma
[59] = system: PC-3 prostate

Work on `CC(=O)NNc1nc(C)c(C(=O)/C=C/C=C/c2ccccc2)s1` yielded a TGI [1] of over 100 µM, a TGI [2] of over 100 µM and a TGI [3] of over 100 µM. It also gave a TGI [4] of over 100 µM, a TGI [5] of over 100 µM and a TGI [6] of over 100 µM. It also gave a TGI [7] of over 100 µM, a TGI [8] of over 100 µM and a TGI [9] of over 100 µM. It also gave a TGI [10] of over 100 µM, a TGI [11] of over 100 µM and a TGI [12] of over 100 µM. The TGI [13] was over 100 µM, the TGI [14] was over 100 µM and the TGI [15] was over 100 µM. The TGI [16] was over 100 µM, the TGI [17] was over 100 µM and the TGI [18] was over 100 µM. For the same molecule, the TGI [19] was over 100 µM, the TGI [20] was over 100 µM and the TGI [21] was over 100 µM. The TGI [22] was over 100 µM, the TGI [23] was over 100 µM and the TGI [24] was over 100 µM. It also gave a TGI [25] of over 100 µM, a TGI [26] of over 100 µM and a TGI [27] of over 100 µM. The TGI [28] was over 100 µM, the TGI [29] was over 100 µM and the TGI [30] was over 100 µM. The TGI [31] was over 100 µM, the TGI [32] was over 100 µM and the TGI [33] was over 100 µM. It also gave a TGI [34] of over 100 µM, a TGI [35] of over 100 µM and a TGI [36] of over 100 µM. The TGI [37] was over 100 µM, the TGI [38] was over 100 µM and the TGI [39] was over 100 µM. It also gave a TGI [40] of over 100 µM, a TGI [41] of over 100 µM and a TGI [42] of over 100 µM. The TGI [43] was over 100 µM, the TGI [44] was over 100 µM and the TGI [45] was over 100 µM. For the same molecule, the TGI [46] was over 100 µM, the TGI [47] was over 100 µM and the TGI [48] was over 100 µM. For the same molecule, the TGI [49] was over 100 µM, the TGI [50] was over 100 µM and the TGI [51] was over 100 µM. The TGI [52] was over 100 µM, the TGI [53] was over 100 µM and the TGI [54] was over 100 µM.

`O=C1/C(=C\c2cccc(Oc3ccccc3)c2)SC(c2ccccc2)N1c1ccccc1Cl` (configuration not stated) showed a TGI [1] of 55.3 µM, a TGI [3] of over 100 µM and a TGI [4] of over 100 µM. It also gave a TGI [5] of 76.4 µM, a TGI [6] of 75.8 µM and a TGI [7] of 69.7 µM. The TGI [8] was over 100 µM, the TGI [9] was over 100 µM and the TGI [10] was over 100 µM. The TGI [11] was over 100 µM, the TGI [12] was over 100 µM and the TGI [13] was over 100 µM. The TGI [14] was over 100 µM, the TGI [15] was 57.5 µM and the TGI [16] was 60.2 µM. For the same molecule, the TGI [17] was over 100 µM, the TGI [55] was over 100 µM and the TGI [18] was over 100 µM. For the same molecule, the TGI [19] was 98.8 µM, the TGI [20] was over 100 µM and the TGI [21] was over 100 µM. It also gave a TGI [22] of 96.9 µM, a TGI [23] of over 100 µM and a TGI [24] of 39 µM. The TGI [25] was over 100 µM, the TGI [26] was over 100 µM and the TGI [27] was over 100 µM. It also gave a TGI [28] of 49 µM, a TGI [56] of over 100 µM and a TGI [57] of 78.5 µM. It also gave a TGI [29] of 85.8 µM, a TGI [30] of over 100 µM and a TGI [31] of over 100 µM. For the same molecule, the TGI [32] was over 100 µM, the TGI [33] was 50.7 µM and the TGI [34] was over 100 µM. The TGI [35] was over 100 µM, the TGI [36] was 29.8 µM and the TGI [37] was 48.5 µM. It also gave a TGI [38] of over 100 µM, a TGI [39] of 78.9 µM and a TGI [40] of 79.9 µM. For the same molecule, the TGI [42] was over 100 µM, the TGI [43] was over 100 µM and the TGI [44] was over 100 µM. It also gave a TGI [45] of 49.9 µM, a TGI [46] of over 100 µM and a TGI [47] of 96.6 µM. The TGI [48] was 38.4 µM, the TGI [49] was over 100 µM and the TGI [50] was over 100 µM. For the same molecule, the TGI [51] was over 100 µM, the TGI [52] was 78.5 µM and the TGI [53] was 68 µM. The TGI [58] was 92.4 µM and the TGI [54] was 54.2 µM.

With `Cc1ccc(N=C2SC(=S)N(CCC[N+](C)(C)C)C2=Nc2ccc(C)cc2)cc1` the TGI [1] was 32 µM, the TGI [2] was 26.6 µM and the TGI [3] was 38.5 µM. For the same molecule, the TGI [4] was 18.7 µM, the TGI [5] was 27.7 µM and the TGI [7] was 32.7 µM. For the same molecule, the TGI [8] was 40.7 µM, the TGI [9] was 31.4 µM and the TGI [10] was 22.3 µM. For the same molecule, the TGI [13] was 36.3 µM, the TGI [14] was 29.7 µM and the TGI [15] was 31.6 µM. For the same molecule, the TGI [16] was 24.6 µM, the TGI [17] was 47 µM and the TGI [55] was 33.8 µM. The TGI [18] was 27 µM, the TGI [19] was 50.1 µM and the TGI [20] was 5.86 µM. It also gave a TGI [22] of 29.5 µM, a TGI [25] of 46.1 µM and a TGI [26] of 41.4 µM. The TGI [27] was 23.7 µM, the TGI [28] was 87.6 µM and the TGI [56] was 32.9 µM. For the same molecule, the TGI [57] was 18 µM, the TGI [29] was 32 µM and the TGI [30] was 52.7 µM. For the same molecule, the TGI [31] was 30.3 µM, the TGI [32] was 48.3 µM and the TGI [33] was 25.4 µM. The TGI [35] was 41.9 µM, the TGI [36] was 27.5 µM and the TGI [39] was 39.6 µM. The TGI [40] was 38.8 µM, the TGI [41] was 22.6 µM and the TGI [43] was 36.8 µM. The TGI [44] was 30.1 µM, the TGI [45] was 32.9 µM and the TGI [59] was 28.3 µM. The TGI [46] was 37.8 µM, the TGI [47] was 15.4 µM and the TGI [48] was 58 µM. The TGI [49] was 32.3 µM, the TGI [51] was 37.8 µM and the TGI [52] was 26.6 µM. It also gave a TGI [58] of 35.9 µM and a TGI [54] of 28.5 µM.
